What was measured:
Experiment in all cases: relative viability (nuclei count vs DMSO), 5 days (fraction); higher = more cells survive
Imatinib + AZD7762 = compound: Cc1ccc(NC(=O)c2ccc(CN3CCN(C)CC3)cc2)cc1Nc1nccc(-c2cccnc2)n1 [Imatinib] + NC(=O)Nc1cc(-c2cccc(F)c2)sc1C(=O)N[C@H]1CCCNC1 [AZD7762] (partner 0.2 µM)
Procedure, shortened: (§1)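 Relative viability divides the nuclei count in treated wells by that in vehicle wells. Lung cancer cell lines were seeded in 1536-well plates, dosed by pin tool the next day, and fixed and stained after 5 days in one step with final 0.05% Triton X-100, 1% formaldehyde and 1 ug/ml Hoechst. Dosing was a single drug or a fixed anchor-drug dose plus five library-drug doses (not always all listed) in √10 steps, and values are medians of duplicate plates imaged at 4×.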

Imatinib + OSI-027 = compound: Cc1ccc(NC(=O)c2ccc(CN3CCN(C)CC3)cc2)cc1Nc1nccc(-c2cccnc2)n1 [Imatinib] + COc1cccc2cc(-c3nc([C@H]4CC[C@H](C(=O)O)CC4)n4ncnc(N)c34)[nH]c12 [OSI-027] (partner 0.5 µM)
Procedure, shortened: as §1

Imatinib + Decitabine = compound: Cc1ccc(NC(=O)c2ccc(CN3CCN(C)CC3)cc2)cc1Nc1nccc(-c2cccnc2)n1 [Imatinib] + Nc1ncn([C@H]2C[C@H](O)[C@@H](CO)O2)c(=O)n1 [Decitabine] (partner 2 µM)
Procedure, shortened: as §1

Imatinib + Olaparib = compound: Cc1ccc(NC(=O)c2ccc(CN3CCN(C)CC3)cc2)cc1Nc1nccc(-c2cccnc2)n1 [Imatinib] + O=C(c1cc(Cc2n[nH]c(=O)c3ccccc23)ccc1F)N1CCN(C(=O)C2CC2)CC1 [Olaparib] (partner 8 µM)
Procedure, shortened: as §1

Row | Cell Line | relative viability (Imatinib + AZD7762; first compound 0.02 µM) | relative viability (Imatinib + AZD7762; first compound 0.2 µM) | relative viability (Imatinib + AZD7762; first compound 0.6325 µM) | relative viability (Imatinib + AZD7762; first compound 2 µM) | relative viability (Imatinib + OSI-027; first compound 0.02 µM) | relative viability (Imatinib + OSI-027; first compound 0.06325 µM) | relative viability (Imatinib + OSI-027; first compound 0.2 µM) | relative viability (Imatinib + OSI-027; first compound 0.6325 µM) | relative viability (Imatinib + OSI-027; first compound 2 µM) | relative viability (Imatinib + Decitabine; first compound 0.02 µM) | relative viability (Imatinib + Decitabine; first compound 0.2 µM) | relative viability (Imatinib + Decitabine; first compound 0.6325 µM) | relative viability (Imatinib + Decitabine; first compound 2 µM) | relative viability (Imatinib + Olaparib; first compound 0.02 µM) | relative viability (Imatinib + Olaparib; first compound 0.2 µM) | relative viability (Imatinib + Olaparib; first compound 0.6325 µM) | relative viability (Imatinib + Olaparib; first compound 2 µM) | relative viability (Imatinib + AZD7762; first compound 0.06325 µM) | relative viability (Imatinib + Decitabine; first compound 0.06325 µM) | relative viability (Imatinib + Olaparib; first compound 0.06325 µM)
1 | NCI-H1734 | 0.673 | 0.516 | 0.48 | 0.484 | 0.656 | 0.54 | 0.64 | 0.609 | 0.5 | 0.522 | 0.573 | 0.486 | 0.533 | 0.621 | 0.605 | 0.648 | 0.639 |  |  | 
2 | NCI-H1755 | 0.451 | 0.413 | 0.421 | 0.434 | 0.748 | 0.554 | 0.829 | 0.634 | 0.594 | 0.689 | 0.702 | 0.708 | 0.69 | 0.946 | 0.968 | 0.881 | 0.85 | 0.458 | 0.693 | 0.848
3 | NCI-H1792 | 0.727 | 0.513 |  | 0.34 | 0.84 | 0.549 | 0.697 | 0.162 | 0.673 | 0.573 | 0.576 |  | 0.449 | 0.477 | 0.225 |  | 0.33 | 0.7 | 0.496 | 0.481
4 | NCI-H1793 | 0.463 | 0.279 | 0.286 | 0.197 | 0.298 |  | 0.263 | 0.249 | 0.204 | 0.477 | 0.522 | 0.447 | 0.445 | 0.92 | 1.22 | 0.782 | 0.88 |  |  | 
5 | NCI-H1915 | 0.705 | 0.781 | 0.659 | 0.665 | 0.61 |  | 0.67 | 0.6 | 0.599 | 0.257 | 0.281 | 0.276 | 0.243 | 0.237 | 0.253 | 0.26 | 0.234 |  |  | 
6 | NCI-H1944 | 0.628 | 0.452 | 0.37 | 0.423 | 0.423 | 0.267 | 0.403 | 0.425 | 0.381 | 0.427 | 0.474 | 0.401 | 0.444 | 0.448 | 0.414 | 0.394 | 0.459 | 0.556 | 0.394 | 0.337
7 | NCI-H1975 | 0.754 | 0.646 | 0.652 | 0.646 | 0.843 | 0.772 | 0.827 | 0.579 | 0.549 | 0.365 | 0.369 | 0.38 | 0.365 | 0.756 | 0.947 | 0.803 | 0.712 | 0.701 | 0.373 | 0.815
8 | NCI-H1993 | 1.08 | 0.724 | 0.736 | 0.701 | 0.538 | 0.491 | 0.617 | 0.543 | 0.625 | 0.629 | 0.662 | 0.643 | 0.528 | 1.15 | 1.16 | 0.968 | 0.983 | 0.728 | 0.718 | 1.04
9 | NCI-H2085 | 1.03 |  | 1.14 | 0.879 | 0.823 | 0.432 | 0.717 | 0.724 | 0.588 | 0.529 | 0.513 | 0.61 | 0.527 | 0.765 | 0.825 | 0.784 | 0.742 | 0.87 | 0.556 | 0.759
10 | NCI-H2087 | 1.33 | 1.58 | 1.35 |  | 0.601 |  | 0.643 | 0.618 | 0.572 | 0.291 | 0.251 | 0.283 |  | 0.63 | 0.619 | 0.595 |  |  |  | 
11 | NCI-H2126 |  | 1.03 | 0.894 | 0.981 | 0.851 | 0.68 | 0.673 | 0.604 | 0.678 | 0.545 | 0.634 | 0.58 | 0.538 | 0.892 | 0.92 | 0.985 | 0.924 | 0.668 | 0.522 | 0.742
12 | NCI-H2170 | 0.94 | 0.86 | 0.745 | 0.773 | 0.67 | 0.602 | 0.769 | 0.584 | 0.625 | 0.463 | 0.486 | 0.454 | 0.458 | 0.635 | 0.663 | 0.69 | 0.578 | 0.77 | 0.492 | 0.585
13 | NCI-H2342 | 0.434 | 0.443 | 0.455 | 0.553 | 0.667 | 0.539 | 0.636 | 0.596 | 0.665 | 0.745 | 0.779 | 0.679 | 0.71 | 0.44 | 0.466 | 0.473 | 0.426 | 0.493 | 0.713 | 0.404
14 | NCI-H2347 | 0.824 | 0.848 |  | 0.657 | 0.287 | 0.384 | 0.318 | 0.442 | 0.426 | 0.58 | 0.653 | 0.615 | 0.632 | 0.551 | 0.614 | 0.587 | 0.479 |  |  | 
15 | NCI-H2405 | 0.813 | 0.706 | 0.635 | 0.651 | 0.629 |  | 0.645 | 0.592 | 0.641 | 0.707 | 0.848 | 0.724 | 0.722 | 0.933 | 0.919 | 0.875 | 0.922 | 0.791 | 0.636 | 0.947
16 | NCI-H3122 |  | 1.07 | 0.926 | 1.05 | 1.11 | 0.831 | 1.09 |  | 1.1 | 0.44 | 0.441 | 0.439 | 0.375 | 0.71 | 0.701 | 0.693 | 0.66 |  | 0.467 | 0.618
17 | PC-3 [JPC-3] | 0.979 |  | 0.921 | 0.635 | 0.792 |  | 0.854 | 0.877 | 0.711 | 0.861 |  | 0.776 | 0.84 | 1.22 |  | 1.18 | 1.08 |  |  | 
18 | PC-14 | 0.465 | 0.338 | 0.453 | 0.334 | 0.991 | 0.282 | 0.856 | 0.76 | 0.833 | 0.253 | 0.249 | 0.199 | 0.208 | 0.274 | 0.357 | 0.221 | 0.244 | 0.477 | 0.244 | 0.229
19 | RERF-LC-KJ | 1.01 | 1.19 | 0.88 | 0.967 | 0.598 | 0.418 | 0.544 | 0.492 | 0.551 | 0.755 | 0.655 |  | 0.754 | 1.03 | 1.1 |  | 0.898 | 0.523 | 0.558 | 0.933
20 | SW 900 | 0.784 | 0.605 | 0.619 | 0.529 | 0.564 | 0.397 | 0.548 | 0.583 | 0.496 | 0.37 | 0.499 | 0.468 | 0.411 | 0.909 | 1.05 | 0.711 | 0.731 | 0.572 | 0.467 | 1.08

Reference: the supplement of paper PMC10307832
